Measurements taken from patent US8916523B2, “VIP fragments and methods of use” (Vectus Biosystems Limited, priority 2005, dated 2014).
Ends that are not written are not given here.

Key:
[1] = tested on: Spontaneous Hypertensive Rats (SHR); test: Effect of VIP fragment treatment on blood pressure (tail cuff plethysmography) in animal model of hypertension; format: in vivo, rat; conditions: for reduction in systolic blood pressure (SBP) relative to the control solution: SHR on 2.2% salt diet for 4 weeks, peptide infused at 5 pmol/kg/min for 4 weeks, FIGS. 6-9
Excerpt: To determine whether VIP and fragments were effective in controlling blood pressure, Spontaneous Hypertensive Rats (SHR) were acclimated to blood pressure measurement by tail cuff plethysmography and then they were placed on a 2.2% salt diet for 4 weeks.
The rats were randomized to Control (Hartman's Solution) vehicle infusion, VIP(1-28) ([…] (SEQ ID NO: 1), VIP(4-10) (Ala-Val-Phe-Thr-Asp-Asn-Tyr) (SEQ ID NO: 29), VIP(4-12) (Ala-Val-Phe-Thr-Asp-Asn-Tyr-Thr-Arg) (SEQ ID NO: 31), VIP(4-16) (Ala-Val-Phe-Thr-Asp-Asn-Tyr-Thr-Arg-Leu-Arg-Lys-Gln) (SEQ ID NO: 35), VIP(4-20) (Ala-Val-Phe-Thr-Asp-Asn-Tyr-Thr-Arg-Leu-Arg-Lys-Gln-Met-Ala-Val-Lys) (SEQ ID NO: 39), VIP(4-24) ([…] (SEQ ID NO: 43), VIP(4-28) ([…] (SEQ ID NO: 90), VIP(6-10) (Phe-Thr-Asp-Asn-Tyr) (SEQ ID NO: 66), VIP(6-12) (Phe-Thr-Asp-Asn-Tyr-Thr-Arg) (SEQ ID NO: 68), VIP(6-16) (Phe-Thr-Asp-Asn-Tyr-Thr-Arg-Leu-Arg-Lys-Gln) (SEQ ID NO: 72), VIP(6-20) (Phe-Thr-Asp-Asn-Tyr-Thr-Arg-Leu-Arg-Lys-Gln-Met-Ala-Val-Lys) (SEQ ID NO: 76), VIP(6-24) (Phe-Thr-Asp-Asn-Tyr-Thr-Arg-Leu-Arg-Lys-Gln-Met-Ala-Val-Lys-Lys-Tyr-Leu-Asn) (SEQ ID NO: 80), VIP(6-28) ([…] (SEQ ID NO: 84), VIP(16-20) (Gln-Met-Ala-Val-Lys) (SEQ ID NO: 20), VIP(16-24) (Gln-Met-Ala-Val-Lys-Lys-Tyr-Leu-Asn) (SEQ ID NO: 93), VIP(16-28) (Gln-Met-Ala-Val-Lys-Lys-Tyr-Leu-Asn-Ser-Ile-Leu-Asn) (SEQ ID NO: 88), VIP(1-12) (His-Ser-Asp-Ala-Val-Phe-Thr-Asp-Asn-Tyr-Thr-Arg) (SEQ ID NO: 91) and VIP(10-28) (Tyr-Thr-Arg-Leu-Arg-Lys-Gln-Met-Ala-Val-Lys-Lys-Tyr-Leu-Asn-Ser-Ile-Leu-Asn) (SEQ ID NO: 92), VIP(4-10) (Ala-Val-Phe-Thr-Asp-Asn-Tyr) (SEQ ID NO: 29).
Each peptide was infused at 5 pmol/kg/min
Blood pressure was measured by tail cuff plethysmography twice weekly for 4 weeks.

[2] = tested on: WKY rats on a high salt diet; test: Effect of VIP fragment treatment on regression of existing myocardial fibrosis; format: in vivo, rat; conditions: 18 week old WKY rats after 4 weeks high salt diet and infusion 5 pmol/kg/min vs untreated 14 week old rats (zero time), preliminary results, FIG. 2
Protocol: To determine whether VIP (6-16) (SEQ ID NO: 72), VIP(6-20) (SEQ ID NO: 76) and VIP(6-24) (SEQ ID NO: 80) infusion caused regression of existing fibrosis as well as prevented progression of fibrosis two groups of studies were performed. The degree of myocardial fibrosis in untreated 14 week old WKY rats was compared with the degree of fibrosis in 18 week old WKY rats after 4 weeks treatment with a high salt diet or a high salt diet plus L-NAME (10 mg/kg/day) and either VIP (6-16) (SEQ ID NO: 72), VIP(6-20) (SEQ ID NO: 76) and VIP(6-24) (SEQ ID NO: 80) (5 pmol/kg/min) or vehicle control infusion (see FIG. 2)
The regression of fibrosis may be due to either reduction in collagen formation or enhancement of its degradation.

myocardial fibrosis = conditions: disclosed in PCT/AU2005/000835; cited from earlier work

Row | Substance | reduction in systolic blood pressure (SBP) relative to the control solution [1] | also measured
1 | AVFTDNYTR [VIP(4-12)] | significant reductions in SBP | 
2 | AVFTDNYTRLRKQ [VIP(4-16)] | significant reductions in SBP | relative efficacy in reducing SBP compared with VIP(4-12) and VIP(4-20) ([1]; SHR on high salt diet, 5 pmol/kg/min for 4 weeks, FIG. 6): less efficacious
3 | AVFTDNYTRLRKQMAVK [VIP(4-20)] | significant reductions in SBP | 
4 | AVFTDNYTRLRKQMAVKKYLN [VIP(4-24)] | significant reductions in SBP | 
5 | AVFTDNYTRLRKQMAVKKYLNSILN [VIP(4-28)] | significant reductions in SBP | 
6 | FTDNYTRLRKQ [VIP(6-16)] |  | regression of myocardial fibrosis [2]: regression of myocardial fibrosis
7 | FTDNYTRLRKQMAVK [VIP(6-20)] | significant reductions in SBP | 
8 | FTDNYTRLRKQMAVKKYLN [VIP(6-24)] | significant reductions in SBP | 
9 | His-Ser-Asp-Ala-Val-Phe-Thr-Asp-Asn-Tyr-Thr-Arg-Leu-Arg-Lys-Gln-Met-Ala-Val-Lys-Lys-Tyr-Leu-Asn-Ser-Ile-Leu-Asn (HSDAVFTDNYTRLRKQMAVKKYLNSILN; listed as Homo sapiens) [VIP, reference compound] | not seen to have any significant effect in reducing SBP | 
10 | Phe-Thr-Asp-Asn-Tyr-Thr-Arg-Leu-Arg-Lys-Gln-Met-Ala-Val-Lys-Lys-Tyr-Leu-Asn-Ser-Ile-Leu-Asn (FTDNYTRLRKQMAVKKYLNSILN; listed as Homo sapiens) [VIP(6-28), VIP fragment described earlier in PCT/AU2005/000835, not included in the present invention, reference compound] | significant reductions in SBP | effectiveness for preventing myocardial fibrosis (myocardial fibrosis): effective for preventing myocardial fibrosis
